Source: BindingDB's records for doi:10.1016/j.bmcl.2004.06.092 (Merck Research Laboratories, 2004)

How the values were obtained:
[1] = target: T1, Dimer of Gag-Pol polyprotein [489-587,Q496K,L499I,M525I,N526D,M535I,R546K,L552P,A560V,G562S,I573V,L579M,I582L] (Human immunodeficiency virus 1, UniProt P12497, A560V/G562S/I573V/I582L/L499I/L552P/L579M/M525I/M535I/N526D/Q496K/R546K); assay: Protease Inhibition Assay
T1 construct: 489-587
Experimental: (§1) Assay of HIV protease inhibition was performed by peptide cleavage using the substrate Val-Ser-Gln-Asn-beta-naphthylalanine*Pro-Ile-Val. Products of the cleavage reaction were quantified by HPLC detection, and data were fit to nonlinear least squares equations for determination of steady-state Michaelis-Menten kinetics.

[2] = target: T2, Dimer of Gag-Pol polyprotein [489-587,Q496K] (Human immunodeficiency virus 1, UniProt P12497, Q496K); assay: Protease Inhibition Assay; details: pH 5.5; 30 °C
T2 construct: 489-587
Experimental: as §1

## COc1cncc(-c2cnc(C(C)(C)N3CCN(C[C@@H](O)C[C@@H](Cc4nnc(C)o4)C(=O)N[C@H]4c5ccccc5OC[C@H]4O)[C@H](C(=O)NCC(F)(F)F)C3)o2)c1 [(2S)-1-[(2S,4S)-2-hydroxy-4-{[(3S,4S)-3-hydroxy-3,4-dihydro-2H-1-benzopyran-4-yl]carbamoyl}-4-[(5-methyl-1,3,4-oxadiazol-2-yl)methyl]butyl]-4-{2-[5-(5-methoxypyridin-3-yl)-1,3-oxazol-2-yl]propan-2-yl}-N-(2,2,2-trifluoroethyl)piperazine-2-carboxamide]
[1]
  IC50: 15 nM
[2]
  IC50: 0.4 nM

## CC(C)(c1ncc(-c2ccc(F)cc2)o1)N1CCN(C[C@@H](O)C[C@@H](Cc2nnc(-c3ccccc3)o2)C(=O)N[C@H]2c3ccccc3OC[C@H]2O)[C@H](C(=O)NCC(F)(F)F)C1 [(2S)-4-{2-[5-(4-fluorophenyl)-1,3-oxazol-2-yl]propan-2-yl}-1-[(2S,4S)-2-hydroxy-4-{[(3S,4S)-3-hydroxy-3,4-dihydro-2H-1-benzopyran-4-yl]carbamoyl}-4-[(5-phenyl-1,3,4-oxadiazol-2-yl)methyl]butyl]-N-(2,2,2-trifluoroethyl)piperazine-2-carboxamide]
[2]
  IC50: 0.02 nM

## CCCc1nnc(C[C@H](C[C@H](O)CN2CCN(Cc3ccc(-c4ccc(Cl)cc4)o3)C[C@H]2C(=O)NCC(F)(F)F)C(=O)N[C@H]2c3ccccc3OC[C@H]2O)o1 [(2S)-4-{[5-(4-chlorophenyl)furan-2-yl]methyl}-1-[(2S,4S)-2-hydroxy-4-{[(3S,4S)-3-hydroxy-3,4-dihydro-2H-1-benzopyran-4-yl]carbamoyl}-4-[(5-propyl-1,3,4-oxadiazol-2-yl)methyl]butyl]-N-(2,2,2-trifluoroethyl)piperazine-2-carboxamide]
[2]
  IC50: < 0.015 nM

## CCCc1nnc(C[C@H](C[C@H](O)CN2CCN(C(C)(C)c3ncc(-c4cncc(OC)c4)o3)C[C@H]2C(=O)NCC(F)(F)F)C(=O)N[C@H]2c3ccccc3OC[C@H]2O)o1 [(2S)-1-[(2S,4S)-2-hydroxy-4-{[(3S,4S)-3-hydroxy-3,4-dihydro-2H-1-benzopyran-4-yl]carbamoyl}-4-[(5-propyl-1,3,4-oxadiazol-2-yl)methyl]butyl]-4-{2-[5-(5-methoxypyridin-3-yl)-1,3-oxazol-2-yl]propan-2-yl}-N-(2,2,2-trifluoroethyl)piperazine-2-carboxamide]
[2]
  IC50: 0.32 nM

## COc1cncc(-c2cnc(C(C)(C)N3CCN(C[C@@H](O)C[C@@H](Cc4nnco4)C(=O)N[C@H]4c5ccccc5OC[C@H]4O)[C@H](C(=O)NCC(F)(F)F)C3)o2)c1 [(2S)-1-[(2S,4S)-2-hydroxy-4-{[(3S,4S)-3-hydroxy-3,4-dihydro-2H-1-benzopyran-4-yl]carbamoyl}-4-(1,3,4-oxadiazol-2-ylmethyl)butyl]-4-{2-[5-(5-methoxypyridin-3-yl)-1,3-oxazol-2-yl]propan-2-yl}-N-(2,2,2-trifluoroethyl)piperazine-2-carboxamide]
[1]
  IC50: 7.4 nM
[2]
  IC50: 0.24 nM

## CC(C)(c1ncc(-c2ccc(Cl)cc2)o1)N1CCN(C[C@@H](O)C[C@@H](Cc2nnc(-c3ccccc3)o2)C(=O)N[C@H]2c3ccccc3OC[C@H]2O)[C@H](C(=O)NCC(F)(F)F)C1 [(2S)-4-{2-[5-(4-chlorophenyl)-1,3-oxazol-2-yl]propan-2-yl}-1-[(2S,4S)-2-hydroxy-4-{[(3S,4S)-3-hydroxy-3,4-dihydro-2H-1-benzopyran-4-yl]carbamoyl}-4-[(5-phenyl-1,3,4-oxadiazol-2-yl)methyl]butyl]-N-(2,2,2-trifluoroethyl)piperazine-2-carboxamide]
[1]
  IC50: 0.18 nM
[2]
  IC50: < 0.015 nM

## Cc1nnc(C[C@H](C[C@H](O)CN2CCN(Cc3ccc(-c4ccc(Cl)cc4)o3)C[C@H]2C(=O)NCC(F)(F)F)C(=O)N[C@H]2c3ccccc3OC[C@H]2O)o1 [(2S)-4-{[5-(4-chlorophenyl)furan-2-yl]methyl}-1-[(2S,4S)-2-hydroxy-4-{[(3S,4S)-3-hydroxy-3,4-dihydro-2H-1-benzopyran-4-yl]carbamoyl}-4-[(5-methyl-1,3,4-oxadiazol-2-yl)methyl]butyl]-N-(2,2,2-trifluoroethyl)piperazine-2-carboxamide]
[2]
  IC50: < 0.015 nM

## COc1cncc(-c2cnc(C(C)(C)N3CCN(C[C@@H](O)C[C@@H](Cc4nnc(-c5ccccc5)o4)C(=O)N[C@H]4c5ccccc5OC[C@H]4O)[C@H](C(=O)NCC(F)(F)F)C3)o2)c1 [(2S)-1-[(2S,4S)-2-hydroxy-4-{[(3S,4S)-3-hydroxy-3,4-dihydro-2H-1-benzopyran-4-yl]carbamoyl}-4-[(5-phenyl-1,3,4-oxadiazol-2-yl)methyl]butyl]-4-{2-[5-(5-methoxypyridin-3-yl)-1,3-oxazol-2-yl]propan-2-yl}-N-(2,2,2-trifluoroethyl)piperazine-2-carboxamide]
[2]
  IC50: 0.48 nM

## CCCc1nnc(C[C@H](C[C@H](O)CN2CCN(C(C)(C)c3ncc(-c4ccc(F)cc4)o3)C[C@H]2C(=O)NCC(F)(F)F)C(=O)N[C@H]2c3ccccc3OC[C@H]2O)o1 [(2S)-4-{2-[5-(4-fluorophenyl)-1,3-oxazol-2-yl]propan-2-yl}-1-[(2S,4S)-2-hydroxy-4-{[(3S,4S)-3-hydroxy-3,4-dihydro-2H-1-benzopyran-4-yl]carbamoyl}-4-[(5-propyl-1,3,4-oxadiazol-2-yl)methyl]butyl]-N-(2,2,2-trifluoroethyl)piperazine-2-carboxamide]
[1]
  IC50: 0.19 nM
[2]
  IC50: 0.016 nM

## CC(C)(c1ncc(-c2ccc(Cl)cc2)o1)N1CCN(C[C@@H](O)C[C@@H](Cc2nnco2)C(=O)N[C@H]2c3ccccc3OC[C@H]2O)[C@H](C(=O)NCC(F)(F)F)C1 [(2S)-4-{2-[5-(4-chlorophenyl)-1,3-oxazol-2-yl]propan-2-yl}-1-[(2S,4S)-2-hydroxy-4-{[(3S,4S)-3-hydroxy-3,4-dihydro-2H-1-benzopyran-4-yl]carbamoyl}-4-(1,3,4-oxadiazol-2-ylmethyl)butyl]-N-(2,2,2-trifluoroethyl)piperazine-2-carboxamide]
[1]
  IC50: 0.043 nM
[2]
  IC50: < 0.015 nM

## CC(C)(c1ncc(-c2ccc(F)cc2)o1)N1CCN(C[C@@H](O)C[C@@H](Cc2nnco2)C(=O)N[C@H]2c3ccccc3OC[C@H]2O)[C@H](C(=O)NCC(F)(F)F)C1 [(2S)-4-{2-[5-(4-fluorophenyl)-1,3-oxazol-2-yl]propan-2-yl}-1-[(2S,4S)-2-hydroxy-4-{[(3S,4S)-3-hydroxy-3,4-dihydro-2H-1-benzopyran-4-yl]carbamoyl}-4-(1,3,4-oxadiazol-2-ylmethyl)butyl]-N-(2,2,2-trifluoroethyl)piperazine-2-carboxamide]
[1]
  IC50: 0.065 nM
[2]
  IC50: 0.024 nM

## Cc1nnc(C[C@H](C[C@H](O)CN2CCN(C(C)(C)c3ncc(-c4ccc(F)cc4)o3)C[C@H]2C(=O)NCC(F)(F)F)C(=O)N[C@H]2c3ccccc3OC[C@H]2O)o1 [(2S)-4-{2-[5-(4-fluorophenyl)-1,3-oxazol-2-yl]propan-2-yl}-1-[(2S,4S)-2-hydroxy-4-{[(3S,4S)-3-hydroxy-3,4-dihydro-2H-1-benzopyran-4-yl]carbamoyl}-4-[(5-methyl-1,3,4-oxadiazol-2-yl)methyl]butyl]-N-(2,2,2-trifluoroethyl)piperazine-2-carboxamide]
[1]
  IC50: 0.19 nM
[2]
  IC50: 0.027 nM

## O=C(N[C@H]1c2ccccc2OC[C@H]1O)[C@H](Cc1nnc(-c2ccccc2)o1)C[C@H](O)CN1CCN(Cc2ccc(-c3ccc(Cl)cc3)o2)C[C@H]1C(=O)NCC(F)(F)F [(2S)-4-{[5-(4-chlorophenyl)furan-2-yl]methyl}-1-[(2S,4S)-2-hydroxy-4-{[(3S,4S)-3-hydroxy-3,4-dihydro-2H-1-benzopyran-4-yl]carbamoyl}-4-[(5-phenyl-1,3,4-oxadiazol-2-yl)methyl]butyl]-N-(2,2,2-trifluoroethyl)piperazine-2-carboxamide]
[2]
  IC50: 0.019 nM

## CCCc1nnc(C[C@H](C[C@H](O)CN2CCN(C(C)(C)c3ncc(-c4ccc(Cl)cc4)o3)C[C@H]2C(=O)NCC(F)(F)F)C(=O)N[C@H]2c3ccccc3OC[C@H]2O)o1 [(2S)-4-{2-[5-(4-chlorophenyl)-1,3-oxazol-2-yl]propan-2-yl}-1-[(2S,4S)-2-hydroxy-4-{[(3S,4S)-3-hydroxy-3,4-dihydro-2H-1-benzopyran-4-yl]carbamoyl}-4-[(5-propyl-1,3,4-oxadiazol-2-yl)methyl]butyl]-N-(2,2,2-trifluoroethyl)piperazine-2-carboxamide]
[1]
  IC50: 0.12 nM
[2]
  IC50: < 0.015 nM

## O=C(N[C@H]1c2ccccc2OC[C@H]1O)[C@H](Cc1nnco1)C[C@H](O)CN1CCN(Cc2ccc(-c3ccc(Cl)cc3)o2)C[C@H]1C(=O)NCC(F)(F)F [(2S)-4-{[5-(4-chlorophenyl)furan-2-yl]methyl}-1-[(2S,4S)-2-hydroxy-4-{[(3S,4S)-3-hydroxy-3,4-dihydro-2H-1-benzopyran-4-yl]carbamoyl}-4-(1,3,4-oxadiazol-2-ylmethyl)butyl]-N-(2,2,2-trifluoroethyl)piperazine-2-carboxamide]
[1]
  IC50: 0.099 nM
[2]
  IC50: 0.015 nM

## Cc1nnc(C[C@H](C[C@H](O)CN2CCN(C(C)(C)c3ncc(-c4ccc(Cl)cc4)o3)C[C@H]2C(=O)NCC(F)(F)F)C(=O)N[C@H]2c3ccccc3OC[C@H]2O)o1 [(2S)-4-{2-[5-(4-chlorophenyl)-1,3-oxazol-2-yl]propan-2-yl}-1-[(2S,4S)-2-hydroxy-4-{[(3S,4S)-3-hydroxy-3,4-dihydro-2H-1-benzopyran-4-yl]carbamoyl}-4-[(5-methyl-1,3,4-oxadiazol-2-yl)methyl]butyl]-N-(2,2,2-trifluoroethyl)piperazine-2-carboxamide]
[1]
  IC50: 0.06 nM
[2]
  IC50: 0.016 nM
